{
  "source": "patent US7390783B2",
  "about": "“Charged phospholipid compositions and methods for their use” (Ottawa Heart Institute Research Corporation, priority 2000, dated 2008)",
  "key": {"[^3H]-FC in plasma": {"test_system": "[^3H]-FC in plasma", "assay": "Clearance of [^3H]-FC from the blood of a rabbit", "type": "in vivo", "method": "1-palmitoyl-2-oleoyl-phosphatidylcholine (PC) and 1-palmitoyl-2-oleoyl phosphatidylinositol (PI) vesicles are prepared by drying to completion 40 μmol of each lipid into a 12×75 mm culture tube under N2. The lipids are solubilized in 3 mL of sterile saline comprising 150 mM sodium chloride (pH 7.2) by sonication for 1 minute at constant duty cycle. The vesicles are incubated at 37° C. for 10 minutes and then sonicated at a high output for 4 minutes in 10° C. water bath under N2. In order to determine the rate of clearance of cholesterol from the test animals (rabbits), a radioactive tracer is added to the vesicle preparations prior to injection into the rabbit. 200 μL of 1 μCi/μmL [^3H]-FC is dried into a 12×75 mm culture tube with 40 μmol of PI or POPC. 3 ml of PBS is added to the dried lipids and the mixture is sonicated as described above. This tracer/vesicle preparation is injected and then 5 min later, the PI or PC vesicles were injected and blood is sampled as described below.\nMale New Zealand white rabbits (3.5-4.0 kg) are fasted for 12 hours prior to injection and remain fasted until after data for the final time point is taken. Rabbits have free access to water during this time. A catheter is inserted into the marginal ear vein and blood samples are collected into tubes containing 7.5% (K3) EDTA solution at the desired time points. A pre-injection blood sample is taken and the vesicle solution of either PI (n=4), or PC (n=2) or saline (n=1) is injected into the marginal ear vein. A sample of blood is removed at 10, 30 min, 1, 3, 6 and 24 h after the injection. All blood samples are placed on ice and then centrifuged at 3000 rpm for 15 min at 4° C. to separate the plasma. In order to ensure that lecithin:cholesterol acyl transferase (LCAT) is inhibited in the stored plasma, iodoacetamide (150 mM) is added to plasma samples as taught by Guerin et al. (1994).\nReferring now to FIG. 5, there is shown the clearance of [^3H]-FC at various times after rabbits are injected with [^3H]-FC and either PI or PC vesicles. […] In comparison, rabbits injected with PC contain approximately 90% of the injected radioactivity after 1 h."}, "[1]": {"test_system": "lipoprotein CE and FC in whole blood (red blood cells)", "assay": "Incubation of whole blood with PC or PI vesicles: lipoprotein CE and FC", "type": "cell-based, human", "method": "Referring now to FIG. 4, there is graphically depicted the effect of PI or PC vesicles on lipoprotein CE and FC. Incubation of whole blood with PC vesicles results in a 60% increase in the CE content of the lipoproteins, while FC content is reduced by about 10%. […] Negatively charged phospholipids appeared to promote a reciprocal exchange of CE for FC between red blood cells and the lipoprotein particles. […] It has previously been taught that red blood cells cannot store CE and therefore utilize a membrane-bound CE hydrolase to maintain membrane FC levels. Without wishing to be bound by theory, the results therefore indicate that PI stimulates the degradation of lipoprotein CE."}, "[2]": {"assay": "PI mass measurements in HDL after injection of PI vesicles", "type": "in vivo, rabbit", "text": "The clearance of PI from the different lipoproteins may have been due to either a lipoprotein-cellular transfer or to a selective hydrolysis by a charged phospholipid specific phospholipase."}, "Human plasma": {"test_system": "Human plasma", "assay": "Plasma clotting time (prothrombin time)", "type": "biochemical", "conditions": "human plasma incubated with increasing amounts of vesicles, 24 h at 4° C.", "method": "Referring now to FIG. 11, there is shown the effect of charged lipid on blood coagulation. Human plasma was incubated with various amounts of uncharged vesicles, phosphatidylcholine (PC) or anionic vesicles, phosphatidylinositol (PI), for 24 h at 4° C. Prothrombin time was then measured with the use of a commercially available kit."}},
  "data": [
    {"molecule": "CCCCCCCC/C=C\\CCCCCCCC(=O)O[C@H](COC(=O)CCCCCCCCCCCCCCC)COP(=O)(O)O[C@@H]1[C@H](O)[C@H](O)[C@@H](O)[C@H](O)[C@H]1O", "note": "[PI, 1-palmitoyl-2-oleoyl phosphatidylinositol]", "values": [
      {"measurement": "[^3H]-FC in plasma, of the initial dose", "setting": "[^3H]-FC in plasma; after about 1 h", "result": "about 15%"},
      {"measurement": "half-life of [^3H]-FC shorter than for PC injected rabbits", "setting": "[^3H]-FC in plasma; rabbit, in vivo", "result": "about 30 fold"},
      {"measurement": "increase of lipoprotein FC levels", "setting": "[1]", "result": "about 40%"},
      {"measurement": "reduction of lipoprotein CE", "setting": "[1]", "result": "about 40%"},
      {"measurement": "level of PI in HDL, of the total HDL-PL", "setting": "[2]; after 10 min, initially below detection levels", "result": "up to 30%"},
      {"measurement": "HDL-PI content, of the HDL-PL", "setting": "[2]; by 3 h", "result": "5-10%"},
      {"measurement": "effect on plasma clotting time (prothrombin time)", "setting": "Human plasma", "result": "caused an inhibition to the formation of prothrombin"}
    ]}
  ]
}
